Results from PubChem BioAssay (NCI).
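Grown in 96-well plates, cells were treated for 48 hours with each compound at five concentrations. Insufficient inhibition: endpoint recorded as highest concentration tested. GI50 = concentration required for 50% inhibition of growth. TGI: concentration producing complete growth inhibition.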

Experiments:
Test in all cases: inhibition of tumour cell growth, NCI panel, 48 h
SK-MEL-2 melanoma = tested on: SK-MEL-2 melanoma
SK-MEL-28 melanoma = tested on: SK-MEL-28 melanoma
A549 NSCLC = tested on: A549 NSCLC
MDA-MB-435 = tested on: MDA-MB-435
OVCAR-5 ovarian = tested on: OVCAR-5 ovarian
HCC-2998 colon = tested on: HCC-2998 colon
CAKI-1 renal = tested on: CAKI-1 renal
COLO 205 colon = tested on: COLO 205 colon
TK-10 renal = tested on: TK-10 renal
NCI-H460 lung = tested on: NCI-H460 lung

SMILES: CC(CN1CCN(C)CC1)CN1c2ccccc2Sc2ccc(C(F)(F)F)cc21 (stereo not given)
- GI50 (SK-MEL-2 melanoma): 2.09 µM
- TGI (SK-MEL-2 melanoma): 3.74 µM
- GI50 (SK-MEL-28 melanoma): 1.91 µM
- TGI (SK-MEL-28 melanoma): 3.42 µM
- GI50 (A549 NSCLC): 1.85 µM
- TGI (A549 NSCLC): 3.49 µM
- GI50 (MDA-MB-435): 1.8 µM
- TGI (MDA-MB-435): 3.6 µM
- GI50 (OVCAR-5 ovarian): 1.53 µM
- TGI (OVCAR-5 ovarian): 3.13 µM
- GI50 (HCC-2998 colon): 1.63 µM
- TGI (HCC-2998 colon): 3.07 µM
- GI50 (CAKI-1 renal): 2.6 µM
- TGI (CAKI-1 renal): 11 µM
- GI50 (COLO 205 colon): 1.89 µM
- TGI (COLO 205 colon): 3.65 µM
- GI50 (TK-10 renal): 1.85 µM
- TGI (TK-10 renal): 3.3 µM
- GI50 (NCI-H460 lung): 1.93 µM
- TGI (NCI-H460 lung): 3.84 µM

SMILES: NC(=NC1CCCCCCC1)c1ccc(N2CCN(c3ccc(C(N)=NC4CCCCCCC4)cc3)CC2)cc1
- GI50 (SK-MEL-2 melanoma): 12 µM
- TGI (SK-MEL-2 melanoma): > 100 µM
- GI50 (SK-MEL-28 melanoma): 6.75 µM
- TGI (SK-MEL-28 melanoma): 22.8 µM
- GI50 (A549 NSCLC): 4.25 µM
- TGI (A549 NSCLC): > 100 µM
- GI50 (MDA-MB-435): 5.25 µM
- TGI (MDA-MB-435): 17.9 µM
- GI50 (OVCAR-5 ovarian): 14.9 µM
- TGI (OVCAR-5 ovarian): 39 µM
- GI50 (HCC-2998 colon): 14.4 µM
- TGI (HCC-2998 colon): 48 µM
- GI50 (CAKI-1 renal): 23.1 µM
- TGI (CAKI-1 renal): 63.1 µM
- GI50 (COLO 205 colon): 13.3 µM
- TGI (COLO 205 colon): 39.3 µM
- GI50 (TK-10 renal): 10.9 µM
- TGI (TK-10 renal): 34.2 µM
- GI50 (NCI-H460 lung): 11.9 µM
- TGI (NCI-H460 lung): > 100 µM

SMILES: C=CCNCCCN1C(=O)c2ccc3c4c(ccc(c24)C1=O)C(=O)N(CCCNCC=C)C3=O
- GI50 (SK-MEL-2 melanoma): 0.364 µM
- TGI (SK-MEL-2 melanoma): 1.7 µM
- GI50 (SK-MEL-28 melanoma): 1.06 µM
- TGI (SK-MEL-28 melanoma): 2.6 µM
- GI50 (A549 NSCLC): 0.226 µM
- TGI (A549 NSCLC): 0.605 µM
- GI50 (MDA-MB-435): 0.199 µM
- TGI (MDA-MB-435): 0.434 µM
- GI50 (OVCAR-5 ovarian): 0.596 µM
- TGI (OVCAR-5 ovarian): 4.94 µM
- GI50 (HCC-2998 colon): 0.428 µM
- TGI (HCC-2998 colon): 1.54 µM
- GI50 (CAKI-1 renal): 0.34 µM
- TGI (CAKI-1 renal): 1.97 µM
- GI50 (COLO 205 colon): 0.172 µM
- TGI (COLO 205 colon): 0.335 µM
- GI50 (TK-10 renal): 0.551 µM
- TGI (TK-10 renal): 6.14 µM
- GI50 (NCI-H460 lung): 0.195 µM
- TGI (NCI-H460 lung): 0.448 µM

SMILES: C=C1CC2(C[C@@H](c3ccccc3)O[C@@H](c3ccccc3)C2)OC1=O (stereo not given in full)
- TGI (SK-MEL-2 melanoma): 11.3 µM
- TGI (SK-MEL-28 melanoma): 3.83 µM
- TGI (A549 NSCLC): 13.4 µM
- TGI (MDA-MB-435): 7.48 µM
- TGI (OVCAR-5 ovarian): 26.9 µM
- TGI (HCC-2998 colon): 14.6 µM
- TGI (CAKI-1 renal): 4.53 µM
- TGI (COLO 205 colon): 4.45 µM
- TGI (TK-10 renal): 3.89 µM
- TGI (NCI-H460 lung): 23.3 µM
